Experimental data from US20240374631A1, “A COMPOSITION FOR IMPROVING GUT MICROBIOTA, BEHAVIOURAL PATTERN, ALPHA-SYNUCLEIN LEVELS, SLEEP PATTERN AND/OR SERUM MELATONIN” (GN Corporation Co Ltd, priority 2021, published 2024).

System: gut microbiota
Test: Gut microbiome analysis (16S rRNA sequencing of fecal samples) in STAM model of NASH
Type: in vivo, C57BL/6J mice
From the text: The study is reported in accordance with Animal Research: Reporting of In Vivo Experiments (ARRIVE) guidelines. C57BL/6J mice were obtained from Japan SLC, Inc. (Japan). All animals used in this study were cared for under the following guidelines: Act on Welfare and Management of Animals (Ministry of the Environment, Japan, Act No. 105 of Oct. 1, 1973), standards relating to the care and management of laboratory animals and relief of pain (Notice No. 88 of the Ministry of the Environment, Japan, Apr. 28, 2006) and the guidelines for proper conduct of animal experiments (Science Council of Japan, Jun. 1, 2006). Protocol approvals were obtained from SMC Laboratories, Japan's IACUC (Study reference no: […] Mice were maintained in a specific pathogen-free (SPF) facility under controlled conditions of temperature (23±3° C.), humidity (50±20%), lighting (12-hour artificial light and dark cycles; light from 8:00 to 20:00) and air exchange. The STAM model of NASH was induced as previously described [D10]. Mice were given a single subcutaneous injection of 200 μg streptozotocin (STZ, Sigma-Aldrich, USA) solution 2 days after birth and fed with a high-fat diet (HFD, 57 kcal % fat, Cat #HFD32, CLEA Japan, Inc., Japan) from 4-9 weeks of age. All mice develop liver steatosis and diabetes and at […] mice had established steatohepatitis, histologically. Studygroups: There were five study groups, described below. Eight mice were included in each study group. Eight NASH mice were orally administered vehicle supplemented with AFO-202 Beta Glucan at a dose of 1 mg/kg in a volume of 5 mL/kg once daily from 6 to 9 weeks of age. Eight NASH mice were orally administered vehicle supplemented with Telmisartan at a dose of 10 mg/kg once daily from 6 to 9 weeks of age. Frequency: Fecal samples were collected at the 6 weeks of age (before administration) and 9 weeks of age (before sacrifice). Procedure: At 6 weeks of age, fecal samples were collected from each mouse by clean catch method. […] A sterile petri dish was placed on the bench. Gently massage the abdomen, position the bottom of mouse over a fresh petri dish, and collect 1-2 fecal pellets. At sacrifice, fecal samples were aseptically collected from cecum. The tubes with feces were placed on ice immediately. These tubes were snap frozen in liquid nitrogen and stored at -80° C. for shipping. In this analysis, the 16S rRNA sequence data acquired by the next-generation sequencer from the fecal […] was used to perform community analysis using the QIIME2 program for microbial community analysis. The raw read data in FASTQ format output from the next-generation sequencer was trimmed to remove adapter sequences and low QV regions that may be included in the data. Cutadapt was used to remove adapter sequences from DNA sequencing reads. Trimmomatic was used as read trimming tool for Illumina NGS data. The adapter sequence was trimmed using the adapter trimming program “cutadapt” if the Trimming of the region at the end of the read sequence overlapped the corresponding sequence by at least one base (mismatch tolerance: 20%). When reads containing N were present in at least one of Read1 and Read2, both Read1 and Read2 were removed. Trimming of low QV regions was performed on the read data after processing using the QV trimming program “Trimmomatic” under the following conditions. The window of 20 bases is slid from the 5' side, and the area where the average QV is less than 20 is trimmed. After trimming, only the reads with more than 50 bases remaining in both Read1 and Read2 were taken as output. The microbial community analysis based on 16S rRNA sequence was performed on the sequence data trimmed in the previous section using the microbial community analysis program “QIIME2”. The annotation program “sklearn” included in QIIME2 is used to annotate the ASV (OTU) sequences. […]

## CCCc1nc2c(C)cc(-c3nc4ccccc4n3C)cc2n1Cc1ccc(-c2ccccc2C(=O)O)cc1 [Telmisartan]
post-intervention, table row r426
  Abundance: Family Erysipelotrichaceae, Genus —, Species —: 0
post-intervention, table row r427
  Abundance: Family Deferribacteraceae, Genus Mucispirillum, Species schaedleri: 0
post-intervention, table row r428
  Abundance: Family Methylobacteriaceae, Genus Methylobacterium, Species Other: 0
post-intervention, table row r429
  Abundance: Family Methanobacteriaceae, Genus Methanobrevibacter, Species —: 0
post-intervention, table row r431
  Abundance: Family Lachnospiraceae, Genus Other, Species Other: 0
post-intervention, table row r432
  Abundance: Family Lachnospiraceae, Genus Dorea, Species —: 0
post-intervention, table row r433
  Abundance: Family Lachnospiraceae, Genus Dorea, Species —: 0
post-intervention, table row r434
  Abundance: Family Lachnospiraceae, Genus —, Species —: 0
post-intervention, table row r435
  Abundance: Family Erysipelotrichaceae, Genus —, Species —: 0
post-intervention, table row r437
  Abundance: Family Other, Genus Other, Species Other: 0
post-intervention, table row r438
  Abundance: Family Ruminococcaceae, Genus Ruminococcus, Species —: 11
post-intervention, table row r439
  Abundance: Family Lachnospiraceae, Genus Other, Species Other: 0
post-intervention, table row r440
  Abundance: Family Erysipelotrichaceae, Genus Clostridum, Species cocleatum: 0
post-intervention, table row r441
  Abundance: Family Clostridiaceae, Genus —, Species —: 0
post-intervention, table row r442
  Abundance: Family S24-7, Genus —, Species —: 0
post-intervention, table row r443
  Abundance: Family Ruminococcaceae, Genus Oscillospira, Species —: 10
post-intervention, table row r446
  Abundance: Family Erysipelotrichaceae, Genus —, Species —: 9
post-intervention, table row r447
  Abundance: Family Streptococcaceae, Genus —, Species —: 0
post-intervention, table row r448
  Abundance: Family Erysipelotrichaceae, Genus —, Species —: 0
post-intervention, table row r449
  Abundance: Family Turicibacteraceae, Genus Turicibacter, Species —: 0
post-intervention, table row r450
  Abundance: Family S24-7, Genus —, Species —: 0
post-intervention, table row r451
  Abundance: Family Ruminococcaceae, Genus Oscillospira, Species —: 0
post-intervention, table row r452
  Abundance: Family Lachnospiraceae, Genus —, Species —: 0
post-intervention, table row r454
  Abundance: Family Erysipelotrichaceae, Genus —, Species —: 0
post-intervention, table row r455
  Abundance: Family Ruminococcaceae, Genus Ruminococcus, Species —: 7
post-intervention, table row r456
  Abundance: Family Moraxellaceae, Genus Psychrobacter, Species Other: 0
post-intervention, table row r457
  Abundance: Family Paenibacillaceae, Genus Other, Species Other: 0
post-intervention, table row r458
  Abundance: Family Lachnospiraceae, Genus Coprococcus, Species —: 0
post-intervention, table row r459
  Abundance: Family Bacillaceae, Genus Bacillus, Species —: 0
post-intervention, table row r460
  Abundance: Family Enterococcaceae, Genus Vagococcus, Species —: 0
post-intervention, table row r462
  Abundance: Family Lachnospiraceae, Genus —, Species —: 0
post-intervention, table row r466
  Abundance: Family Ruminococcaceae, Genus Oscillospira, Species —: 0
post-intervention, table row r468
  Abundance: Family Erysipelotrichaceae, Genus —, Species —: 0
post-intervention, table row r469
  Abundance: Family Other, Genus Other, Species Other: 4
post-intervention, table row r470
  Abundance: Family Clostridiaceae, Genus Clostridium, Species Other: 0
post-intervention, table row r473
  Abundance: Family Ruminococcaceae, Genus —, Species —: 0
post-intervention, table row r474
  Abundance: Family Deferribacteraceae, Genus Mucispirillum, Species schaedleri: 0
post-intervention, table row r475
  Abundance: Family Turicibacteraceae, Genus Turicibacter, Species —: 0
post-intervention, table row r478
  Abundance: Family [Mogibacteriaceae], Genus —, Species —: 0
post-intervention, table row r480
  Abundance: Family Lachnospiraceae, Genus Dorea, Species longicateria: 0
post-intervention, table row r481
  Abundance: Family Ruminococcaceae, Genus —, Species —: 0
post-intervention, table row r482
  Abundance: Family Lachnospiraceae, Genus —, Species —: 0
post, line r8
  Abundance Erysipelotrichaceae/Allobaculum/—: 622
post, line r9
  Abundance Turicibacteraceae/Turicibacter/—: 786
post, line r10
  Abundance Desulfovibrionaceae/—/—: 6012
post, line r11
  Abundance Clostridiaceae/Other/Other: 723
post, line r12
  Abundance Lactobacillaceae/Lactobacillus/—: 254
post, line r13
  Abundance Streptococcaceae/Lactococeus/—: 1948
post, line r14
  Abundance Bacteroidaceae/Bacteroides/—: 8412
post, line r15
  Abundance [Paraprevotellaceae]/[Prevotella]/—: 7582
post, line r16
  Abundance —/—/—: 6029
post, line r17
  Abundance Deferribacteraceae/Mucispirillum/schaedleri: 1921
post, line r18
  Abundance Bacteroidaceae/Bacteroides/acidifaciens: 2571
post, line r19
  Abundance —/—/—: 2764
post, line r20
  Abundance Verrucomicrobiaceae/Akkermansia/muciniphila: 320
post, line r22
  Abundance Enterobacteriaceae/Other/Other: 40
post, line r23
  Abundance Lactobacillaceae/Lactobacillus/—: 513
post, line r24
  Abundance S24-7/—/—: 411
post, line r25
  Abundance Lachnospiraceae/—/—: 1545
post, line r26
  Abundance Peptostreptocpccaceae/—/—: 181
post, line r27
  Abundance Lachnospiraceae/[Ruminococcus]/gnavus: 898
post, line r28
  Abundance Lachnospiraceae/Coprococeus/—: 1468
post, line r29
  Abundance Bifidobacteriaceae/Bifidobacterium/pseudolongum: 111
post, line r30
  Abundance Enterobacteriaceae/Proteus/—: 1153
post, line r31
  Abundance Lactobacillaceae/Lactobacillus/Other: 111
post, line r32
  Abundance S24-7/—/—: 329
post, line r33
  Abundance Porphyromonadaceae/Parabacteroides/distasonis: 1437
post, line r34
  Abundance Clostridiaceae/—/—: 79
post, line r35
  Abundance —/—/—: 536
post, line r36
  Abundance Desulfovibrionaceae/Desulfovibrio/—: 503
post, line r37
  Abundance S24-7/—/—: 271
post, line r38
  Abundance Coriobacteriaceae/Adlercreutzia/—: 135
post, line r39
  Abundance S24-7/—/—: 527
post, line r40
  Abundance Erysipelotrichaceae/Clostridium/cocleatum: 696
post, line r41
  Abundance Ruminococcaceae/Ruminococcus/—: 266
post, line r43
  Abundance Lachnospiraceae/Other/Other: 436
post, line r44
  Abundance Lachnospiraceae/[Ruminococcus]/gnavus: 87
post, line r45
  Abundance Turicibacteraceae/Turicibacter/—: 0
post, line r46
  Abundance Lachnospiraceae/—/—: 253
post, line r47
  Abundance Bacteroidaceae/Bacteroides/—: 2042
post, line r48
  Abundance Ruminococcaceae/Oscillospira/—: 621
post, line r49
  Abundance Clostridiaceae/Other/Other: 70
post, line r50
  Abundance Lachnospiraceae/Roseburia/—: 927
post, line r51
  Abundance Lachnospiraceae/—/—: 698
post, line r52
  Abundance S24-7/—/—: 104
post, line r53
  Abundance Lachnospiraceae/[Ruminococcus]/gnavus: 126
post, line r56
  Abundance Lachnospiraceae/Coprococcus/—: 562
post, line r57
  Abundance S24-7/—/—: 144
post, line r58
  Abundance S24-7/—/—: 410
post, line r60
  Abundance Lachnospiraceae/Other/Other: 245
post, line r61
  Abundance Lachnospiraceae/[Ruminococcus]/gnavus: 686
post, line r62
  Abundance Erysipelotrichaceae/Allobaculum/—: 0
post, line r63
  Abundance Desulfovibrionaceae/Desulfovibrio/C21_c20: 43
post, line r64
  Abundance S24-7/—/—: 152
post, line r66
  Abundance Streptococcaceae/Lactococcus/garvieae: 8
post, line r68
  Abundance Enterobacteriaceae/Proteus/—: 386
post, line r69
  Abundance Lachnospiraceae/—/—: 786
post, line r70
  Abundance S24-7/—/—: 74
post, line r71
  Abundance Lachnospiraceae/[Ruminococcus]/gnavus: 331
post, line r73
  Abundance Clostridiaceae/Clostridium/Other: 0
post, line r74
  Abundance Lachnospiraceae/—/—: 15
post, line r75
  Abundance Clostridiaceae/Other/Other: 49
post, line r78
  Abundance S24-7/—/—: 101
